The experiment has as its target T1, full-length beta-Catenin (Uniprot ID P35222) (Homo sapiens, UniProt P35222).
T1 construct: 10 nM full-length beta-Catenin (Uniprot ID P35222)
T1 sequence (P35222 1-781): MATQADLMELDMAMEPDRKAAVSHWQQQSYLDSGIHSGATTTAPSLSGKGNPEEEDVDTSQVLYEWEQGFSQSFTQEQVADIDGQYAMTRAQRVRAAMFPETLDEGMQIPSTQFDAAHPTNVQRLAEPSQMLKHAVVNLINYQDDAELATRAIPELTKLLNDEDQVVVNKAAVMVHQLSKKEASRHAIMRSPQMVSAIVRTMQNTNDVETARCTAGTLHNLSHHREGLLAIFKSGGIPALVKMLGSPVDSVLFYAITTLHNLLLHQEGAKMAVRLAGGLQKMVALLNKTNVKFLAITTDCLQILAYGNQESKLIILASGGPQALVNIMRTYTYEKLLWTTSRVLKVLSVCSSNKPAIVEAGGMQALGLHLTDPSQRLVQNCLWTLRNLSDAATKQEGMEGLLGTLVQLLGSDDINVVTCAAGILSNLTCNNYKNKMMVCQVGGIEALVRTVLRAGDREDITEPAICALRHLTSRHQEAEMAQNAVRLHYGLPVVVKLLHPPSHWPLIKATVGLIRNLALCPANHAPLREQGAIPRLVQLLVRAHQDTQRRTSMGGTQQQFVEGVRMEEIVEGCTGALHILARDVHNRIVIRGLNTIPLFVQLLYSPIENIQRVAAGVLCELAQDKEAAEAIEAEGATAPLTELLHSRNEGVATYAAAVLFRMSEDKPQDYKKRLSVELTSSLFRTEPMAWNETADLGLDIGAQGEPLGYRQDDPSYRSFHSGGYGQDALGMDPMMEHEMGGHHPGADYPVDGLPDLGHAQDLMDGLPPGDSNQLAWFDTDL
Description: Fluorescence polarization IC50 (beta-catenin / 5FAM-TCF4 10-53 competition). The format is binding. Conditions: fluorescence polarization; read-out: beta-Catenin FP IC50. (In general: Polarisation of emitted light reports the rotation of a fluorescent probe.)

The record followed here is patent publication US20240116985A1, “STAPLED PEPTIDES AND METHODS THEREOF” (priority 2020, published 2024).

In the case of `CC(=O)N1CCC[C@H]1C(=O)N[C@@H](CC(=O)O)C(=O)N[C@@H](CC(C)(C)C)C(=O)N[C@]1(C)CCC=CCCCOC(=O)N2CC[C@@](C(=O)N[C@@H](Cc3ccsc3)C(=O)N[C@@H](Cc3csc4ccccc34)C(=O)N[C@@H](CCC(N)=O)C(N)=O)(C2)NC(=O)[C@H](CC(C)C)NC(=O)[C@H](Cc2ccccc2)NC(=O)[C@H](C)NC(=O)[C@H](C)NC(=O)[C@H](CC(=O)O)NC(=O)[C@H](CC(=O)O)NC1=O` [I-1989, Ac-Pro-Asp-Npg-R4-Asp-Asp-Ala-Ala-Phe-Leu-PyrS2-3Thi-BztA-Gln-NH2], the half-inhibitory concentration (IC50) (as a rule, the midpoint of a concentration-inhibition curve) stood at 186 nM. The figure for `CC(=O)N1CCC[C@H]1C(=O)N[C@@H](CC(=O)O)C(=O)N[C@@H](CC(C)(C)C)C(=O)N[C@]1(C)CC=CCCCOC(=O)N2CC[C@@](C(=O)N[C@@H](Cc3ccsc3)C(=O)N[C@@H](Cc3csc4ccccc34)C(=O)N[C@@H](CCC(N)=O)C(N)=O)(C2)NC(=O)[C@H](CC(C)C)NC(=O)[C@H](Cc2ccccc2)NC(=O)[C@H](C)NC(=O)[C@H](C)NC(=O)[C@H](CC(=O)O)NC(=O)[C@H](CC(=O)O)NC1=O` [I-1990, Ac-Pro-Asp-Npg-R3-Asp-Asp-Ala-Ala-Phe-Leu-PyrS2-3Thi-BztA-Gln-NH2] is 585 nM. The figure for `CC(=O)N1CCC[C@H]1C(=O)N[C@@H](CC(=O)O)C(=O)N[C@@H](CC(C)(C)C)C(=O)N[C@]1(C)CCCCCCCCCOC(=O)N2CC[C@@](C(=O)N[C@@H](Cc3ccsc3)C(=O)N[C@@H](Cc3csc4ccccc34)C(=O)N[C@@H](CCC(N)=O)C(N)=O)(C2)NC(=O)[C@H](CC(C)C)NC(=O)[C@H](Cc2ccccc2)NC(=O)[C@H](C)NC(=O)[C@H](C)NC(=O)[C@H](CC(=O)O)NC(=O)[C@H](CC(=O)O)NC1=O` [I-1991, Ac-Pro-Asp-Npg-R6-Asp-Asp-Ala-Ala-Phe-Leu-PyrS2-3Thi-BztA-Gln-NH2] is 397 nM; for `CC(=O)N1CCC[C@H]1C(=O)N[C@@H](CC(=O)O)C(=O)N[C@@H](CC(C)(C)C)C(=O)N[C@]1(C)CCCCCCCOC(=O)N2CC[C@@](C(=O)N[C@@H](Cc3ccsc3)C(=O)N[C@@H](Cc3csc4ccccc34)C(=O)N[C@@H](CCC(N)=O)C(N)=O)(C2)NC(=O)[C@H](CC(C)C)NC(=O)[C@H](Cc2ccccc2)NC(=O)[C@H](C)NC(=O)[C@H](C)NC(=O)[C@H](CC(=O)O)NC(=O)[C@H](CC(=O)O)NC1=O` [I-1992, Ac-Pro-Asp-Npg-R4-Asp-Asp-Ala-Ala-Phe-Leu-PyrS2-3Thi-BztA-Gln-NH2] it is 536 nM. Then `CC(=O)N1CCC[C@H]1C(=O)N[C@@H](CC(=O)O)C(=O)N[C@@H](CC(C)(C)C)C(=O)N[C@]1(C)CCCCCCOC(=O)N2CC[C@@](C(=O)N[C@@H](Cc3ccsc3)C(=O)N[C@@H](Cc3csc4ccccc34)C(=O)N[C@@H](CCC(N)=O)C(N)=O)(C2)NC(=O)[C@H](CC(C)C)NC(=O)[C@H](Cc2ccccc2)NC(=O)[C@H](C)NC(=O)[C@H](C)NC(=O)[C@H](CC(=O)O)NC(=O)[C@H](CC(=O)O)NC1=O` [I-1993, Ac-Pro-Asp-Npg-R3-Asp-Asp-Ala-Ala-Phe-Leu-PyrS2-3Thi-BztA-Gln-NH2], with 728 nM. As for `CC(=O)N1CCC[C@]12CC=CCCCC1(CCCC=CCCCOC(=O)N3CC[C@@](C(=O)N[C@@H](Cc4cccc(C(F)(F)F)c4)C(=O)N[C@@H](Cc4csc5ccccc45)C(=O)N[C@@H](CCC(N)=O)C(N)=O)(C3)NC(=O)[C@H](CC(N)=O)NC(=O)[C@H](Cc3ccccc3)NC(=O)[C@H](C)NC(=O)[C@H](C)NC(=O)[C@H]([C@@H](C)O)NC(=O)[C@H](CC(N)=O)NC1=O)NC(=O)[C@H](CC(C)(C)C)NC(=O)[C@H](CC(=O)O)NC2=O` (stereo partly drawn) [I-1997, Ac-PL3-Asp-Npg-B5-Asn-Thr-Ala-Ala-Phe-Asn-PyrS2-3F3MeF-BztA-Gln-NH2], the IC50 was determined as 3390 nM.
